Results taken from US20200316208A1, “MECHANICAL PROCESSING OF BIOPOLYMERS” (SolyPlus Berlin GmbH, priority 2017, published 2020).

Test system: skin
Details: application to skin; 0.3% (m/m) histamine dihydrochloride solution used

Cl.Cl.NCCc1c[nH]cn1 [histamine solution droplet, Histamine dihydrochloride]
skin reaction (swelling, reddening, itchy feeling): No effect
